Reference: patent publication US10568900B1, “Androgen effectors” (priority 2013, dated 2020)
Entries after “also recorded” stand apart in the source; their conditions may differ. Read-outs that look alike come from different tables or passages of the source.

Experiments:
5-alpha-reductase = biological target: T1, 5-alpha-reductase (Rattus norvegicus, UniProt P24008); assay: 5-alpha-reductase activity, conversion of testosterone to dihydrotestosterone in microsomal homogenized rat livers; type: biochemical
T1 construct: in microsomal homogenized rat livers; from tissue; host or cells: rat liver microsomes
T1 sequence (P24008 1-259): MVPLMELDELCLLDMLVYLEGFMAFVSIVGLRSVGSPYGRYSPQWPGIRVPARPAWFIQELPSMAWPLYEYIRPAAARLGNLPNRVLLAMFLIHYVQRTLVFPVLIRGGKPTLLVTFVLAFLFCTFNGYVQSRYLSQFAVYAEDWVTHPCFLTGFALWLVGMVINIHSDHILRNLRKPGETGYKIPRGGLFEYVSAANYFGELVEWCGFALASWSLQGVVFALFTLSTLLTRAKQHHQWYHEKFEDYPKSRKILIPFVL
From the text: Finasteride (MK906 or Proscar) was used as the positive control inhibitor.

[1] = biological target: T2, human androgen receptor (hAR) (Homo sapiens, UniProt P10275); assay: Human Androgen Receptor (hAR) assay in recombinant yeast strain BJ1991 PGKhAR; type: cell-based
T2 construct: expressed in transfected cells; host or cells: recombinant yeast strain BJ1991 PGKhAR
T2 sequence (P10275 1-920): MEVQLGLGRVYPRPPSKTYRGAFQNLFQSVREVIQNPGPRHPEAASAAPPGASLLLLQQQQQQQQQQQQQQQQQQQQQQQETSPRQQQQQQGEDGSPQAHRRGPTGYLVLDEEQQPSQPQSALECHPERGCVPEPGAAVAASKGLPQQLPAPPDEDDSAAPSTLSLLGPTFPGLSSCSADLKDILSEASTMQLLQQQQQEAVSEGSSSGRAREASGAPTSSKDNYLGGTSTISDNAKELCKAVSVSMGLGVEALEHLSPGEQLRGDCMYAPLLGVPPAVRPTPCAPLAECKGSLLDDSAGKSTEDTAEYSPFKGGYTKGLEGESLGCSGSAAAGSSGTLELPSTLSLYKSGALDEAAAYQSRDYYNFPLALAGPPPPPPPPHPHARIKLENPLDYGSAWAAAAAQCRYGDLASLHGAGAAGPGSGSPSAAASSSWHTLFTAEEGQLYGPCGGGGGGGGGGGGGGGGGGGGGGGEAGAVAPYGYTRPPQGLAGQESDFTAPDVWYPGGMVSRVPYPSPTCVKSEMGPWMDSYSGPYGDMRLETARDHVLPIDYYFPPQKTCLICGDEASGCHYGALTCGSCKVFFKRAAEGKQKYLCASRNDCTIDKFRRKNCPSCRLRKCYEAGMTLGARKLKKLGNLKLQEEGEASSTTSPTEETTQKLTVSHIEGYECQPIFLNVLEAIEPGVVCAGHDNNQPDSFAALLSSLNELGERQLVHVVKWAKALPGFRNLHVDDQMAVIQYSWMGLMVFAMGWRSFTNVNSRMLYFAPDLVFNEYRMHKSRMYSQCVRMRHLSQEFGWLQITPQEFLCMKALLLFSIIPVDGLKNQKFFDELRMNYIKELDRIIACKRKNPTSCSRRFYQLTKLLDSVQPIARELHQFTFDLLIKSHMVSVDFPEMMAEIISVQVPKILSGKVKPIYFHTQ
From the text: Human Androgen Receptor Assay (hAR) in recombinant yeast strain BJ1991 PGKhAR which contains the human androgen receptor (hAR) gene and a built-in color-indicator to androgenicity via an androgen response element (ARE) which is linked to a gene encoding beta-galactosidase, which hydrolyses end terminal B-galactopyranosyl residues on a chlorophenol red-B-D-galactopyranoside releasing colored indicator, chlorophenol red. Thus, test solutions turn further red with androgenicity.

androgen receptor (AR) = biological target: T3, androgen receptor (AR) (Rattus norvegicus, UniProt P15207); assay: Androgen Receptor Binding Assay (rat prostatic cytosol), displacement of radiolabeled testosterone
T3 construct: rat prostatic cytosol as a source of androgen receptors; from tissue; host or cells: rat prostate cytosol
T3 sequence (P15207 1-902): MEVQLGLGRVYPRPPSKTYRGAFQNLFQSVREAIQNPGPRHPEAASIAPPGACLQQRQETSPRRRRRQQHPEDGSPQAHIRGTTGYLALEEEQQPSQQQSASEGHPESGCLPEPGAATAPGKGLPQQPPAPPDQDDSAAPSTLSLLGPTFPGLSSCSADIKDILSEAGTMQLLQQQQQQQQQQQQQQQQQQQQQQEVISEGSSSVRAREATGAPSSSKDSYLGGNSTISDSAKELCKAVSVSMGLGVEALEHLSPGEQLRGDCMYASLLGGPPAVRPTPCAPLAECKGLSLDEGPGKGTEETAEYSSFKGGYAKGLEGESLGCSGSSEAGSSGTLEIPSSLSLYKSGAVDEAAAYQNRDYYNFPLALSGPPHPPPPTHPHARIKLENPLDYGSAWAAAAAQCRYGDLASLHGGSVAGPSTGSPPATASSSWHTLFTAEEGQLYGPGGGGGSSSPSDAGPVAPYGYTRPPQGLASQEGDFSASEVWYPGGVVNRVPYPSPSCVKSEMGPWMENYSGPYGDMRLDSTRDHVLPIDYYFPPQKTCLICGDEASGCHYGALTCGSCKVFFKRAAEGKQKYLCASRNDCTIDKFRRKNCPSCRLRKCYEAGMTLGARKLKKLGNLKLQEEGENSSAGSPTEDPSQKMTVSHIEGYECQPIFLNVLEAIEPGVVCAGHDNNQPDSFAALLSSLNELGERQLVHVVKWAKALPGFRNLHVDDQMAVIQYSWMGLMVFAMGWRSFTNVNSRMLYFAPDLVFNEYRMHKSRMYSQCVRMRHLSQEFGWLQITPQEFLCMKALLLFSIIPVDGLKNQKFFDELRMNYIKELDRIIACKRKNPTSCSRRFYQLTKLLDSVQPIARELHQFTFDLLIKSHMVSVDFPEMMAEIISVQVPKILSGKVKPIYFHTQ
From the text: The Androgen Receptor Binding Assay in rat prostatic cytosol as a source of androgen receptors identifies chemicals that have the potential to interact with the androgen receptor (AR) in vitro. […] The biological action of androgens is mediated through their interaction with the AR; androgens have no hormonal activity in the absence of a functional AR. Due to a high degree of DNA sequence conservation, substances that bind the AR from rats are presumed to be capable of binding the AR in humans. (Kelce, 1998; Betney, 2003). This screening assay measures the receptor-binding affinity of chemicals by evaluating their ability to displace a bound reference androgen, showing the degree of competition for normal androgen binding and activity, either acting as an agonist or antagonist (which is not discerned by the assay).

ERα = biological target: T4, ERα (Homo sapiens, UniProt P03372); details: cited from earlier work
T4 construct: host or cells: yeast cells (cited work)
T4 sequence (P03372 1-595): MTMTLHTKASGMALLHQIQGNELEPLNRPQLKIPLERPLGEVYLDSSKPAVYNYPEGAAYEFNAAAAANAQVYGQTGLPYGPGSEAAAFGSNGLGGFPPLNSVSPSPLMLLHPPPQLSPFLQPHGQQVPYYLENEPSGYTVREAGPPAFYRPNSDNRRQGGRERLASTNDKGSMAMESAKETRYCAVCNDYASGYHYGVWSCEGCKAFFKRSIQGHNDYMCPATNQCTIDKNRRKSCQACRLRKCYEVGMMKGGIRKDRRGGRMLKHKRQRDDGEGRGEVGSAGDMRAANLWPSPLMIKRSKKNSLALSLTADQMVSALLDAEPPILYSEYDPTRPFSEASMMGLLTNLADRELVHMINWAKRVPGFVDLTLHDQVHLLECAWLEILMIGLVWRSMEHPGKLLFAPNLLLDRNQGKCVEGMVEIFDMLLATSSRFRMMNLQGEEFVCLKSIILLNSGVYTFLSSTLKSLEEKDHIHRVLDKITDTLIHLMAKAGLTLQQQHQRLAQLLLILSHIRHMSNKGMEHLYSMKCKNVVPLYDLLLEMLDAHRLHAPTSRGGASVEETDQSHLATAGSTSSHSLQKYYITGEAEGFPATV

ERβ = biological target: T5, ERβ (Homo sapiens, UniProt Q92731); details: cited from earlier work
T5 construct: host or cells: yeast cells (cited work)

[2] = cited from earlier work
yeast cells = details: cited from earlier work
[3] = rat liver microsomes, read-out: *50% Inhibition (converted)
[4] = tested at 500 μg/ml, rat prostatic cytosol

T5 sequence (Q92731 whole entry, species assumed): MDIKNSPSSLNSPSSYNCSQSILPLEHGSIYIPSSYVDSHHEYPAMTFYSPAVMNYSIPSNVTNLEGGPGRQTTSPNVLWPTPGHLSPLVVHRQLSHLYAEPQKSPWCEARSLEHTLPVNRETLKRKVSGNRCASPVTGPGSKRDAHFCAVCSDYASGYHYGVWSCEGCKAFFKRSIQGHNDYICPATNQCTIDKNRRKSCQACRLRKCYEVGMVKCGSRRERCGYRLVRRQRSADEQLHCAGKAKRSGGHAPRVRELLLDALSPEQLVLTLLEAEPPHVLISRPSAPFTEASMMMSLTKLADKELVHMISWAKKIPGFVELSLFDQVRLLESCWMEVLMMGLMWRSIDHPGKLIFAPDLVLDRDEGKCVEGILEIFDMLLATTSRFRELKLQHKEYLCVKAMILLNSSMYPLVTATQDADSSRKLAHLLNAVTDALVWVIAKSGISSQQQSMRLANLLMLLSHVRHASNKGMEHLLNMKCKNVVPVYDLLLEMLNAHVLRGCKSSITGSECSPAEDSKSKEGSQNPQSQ

CC(C)(C)NC(=O)[C@H]1CC[C@H]2[C@@H]3CC[C@H]4NC(=O)C=C[C@]4(C)[C@H]3CC[C@]12C [Finasteride Proscar Control, Finasteride, reference compound]
IC50 (5-alpha-reductase; positive control, read-out: IC50 (converted)): ~0.188 µM | IC50 (5-alpha-reductase; [3]): 0.188 µM

CC1=CCC(C(C)(C)O)CC1 (stereo not drawn) [alpha-terpineol]
5-alpha-reductase inhibition, in words (5-alpha-reductase): significant 5ARI activity

C[C@@H](CC[C@@]1(O)O[C@H]2C[C@H]3[C@@H]4CC=C5C[C@@H](O[C@@H]6O[C@H](CO)[C@@H](O)[C@H](O[C@@H]7O[C@H](CO)[C@@H](O)[C@H](O)[C@H]7O)[C@H]6O[C@@H]6O[C@@H](C)[C@H](O)[C@@H](O)[C@H]6O)CC[C@]5(C)[C@H]4CC[C@]3(C)[C@H]2[C@@H]1C)CO[C@@H]1O[C@H](CO)[C@@H](O)[C@H](O)[C@H]1O [#9 Protogracillin, Protogracillin]
hAR assay activity, in words [1]: testosterone agonist activity | receptor affinity relative to cyproterone's binding affinity [1]: 1/200 | *hAG (agonist) ([1]; tested at 100 μg/ml): Active (2) | *hAT (antagonist) ([1]; tested at 100 μg/ml): Inactive | androgen receptor binding / interference with testosterone binding, in words (androgen receptor (AR); listed as Protogracillin): does not interfere with normal testosterone binding to receptor | androgen receptor binding / interference with testosterone binding, in words (androgen receptor (AR); listed as protogracillin): did not interfere with regular testosterone receptor binding | *Specific Binding % Inhibition (androgen receptor (AR); [4]): 0% | 5-alpha-reductase inhibition, in words (5-alpha-reductase): did not inhibit 5AR

CC1(C)C=Cc2c(O)ccc(C3=Cc4ccc(O)cc4OC3)c2O1 [#1 Glabrene, Glabrene]
*hAG (agonist) ([1]; tested at 25 μg/ml): Inactive | *hAT (antagonist) ([1]; tested at 25 μg/ml): Inactive | inhibition at 125 µg/mL (androgen receptor (AR); tested at 125 μg/ml, rat prostatic cytosol, read-out: *Specific Binding % Inhibition): 21% | 5-alpha-reductase inhibition, in words (5-alpha-reductase): significant 5ARI activity; also recorded: potent dihydrotestosterone reductase inhibitors | 5-alpha-reductase inhibition, in words (5-alpha-reductase; listed as #1): interfere with the activity of 5-alpha-reductase | IC50 (5-alpha-reductase; read-out: IC50 (5ARI) (converted)): 15.5 µM

Leucoanthocyanidin [#6 Leucoanthocyanidin]
*hAG (agonist) ([1]; tested at 500 μg/ml): Clear | *hAT (antagonist) ([1]; tested at 500 μg/ml): Clear | *Specific Binding % Inhibition (androgen receptor (AR); [4]): 28% | 5-alpha-reductase inhibition, in words (5-alpha-reductase): significant 5ARI activity | 5-alpha-reductase inhibition, in words (5-alpha-reductase; listed as #6): interfere with the activity of 5-alpha-reductase | *50% Inhibition (5-alpha-reductase; rat liver microsomes): 30 µg/mL

C=CC(C)(C)c1cc(/C=C/C(=O)c2ccc(O)cc2)c(OC)cc1O [#5 Licochalcone A, Licochalcone A]
*hAG (agonist) ([1]; tested at 5 μg/ml): Inactive | *hAT (antagonist) ([1]; tested at 5 μg/ml): Inactive | *Specific Binding % Inhibition (androgen receptor (AR); [4]): 21% | 5-alpha-reductase inhibition, in words (5-alpha-reductase; listed as #5): interfere with the activity of 5-alpha-reductase | 5-alpha-reductase inhibition, in words (5-alpha-reductase; listed as Licochalcone A): potent dihydrotestosterone reductase inhibitors | 5-alpha-reductase inhibition, in words (5-alpha-reductase; listed as licochalcone A): significant 5ARI activity | *50% Inhibition (5-alpha-reductase; rat liver microsomes): 7 µg/mL

CC1(C)C=Cc2c(ccc3c2OC[C@@H](c2ccc(O)cc2O)C3)O1 [#4 Glabridin, Glabridin]
*hAG (agonist) ([1]; tested at 5 μg/ml): Inactive | *hAT (antagonist) ([1]; tested at 5 μg/ml): Inactive | androgen receptor binding / interference with testosterone binding, in words (androgen receptor (AR)): does not interfere with normal testosterone to androgen receptor binding | inhibition at 500 µg/mL (androgen receptor (AR); tested at 500 μg/ml, rat prostatic cytosol, read-out: *Specific Binding % Inhibition): 0% | 5-alpha-reductase inhibition, in words (5-alpha-reductase): significant 5ARI activity; also recorded: potent dihydrotestosterone reductase inhibitors | 5-alpha-reductase inhibition, in words (5-alpha-reductase; listed as #4): interfere with the activity of 5-alpha-reductase | IC50 (5-alpha-reductase; [3]): 89.4 µM | estrogenic response (agonism), in words (ERα; 1×10^−7 to 1×10^−4 M): does not exert any estrogenic response | inhibition of the E2 response (ERα; at 6×10^−6 M, without being toxic towards yeast cells): ~80% | ERα antagonism, in words (ERα): ERα-selective antagonist | reduction of estrogenic E2 (ERα): 80% | estrogenic response (agonism), in words (ERβ; 1×10^−7 to 1×10^−4 M): does not exert any estrogenic response | ERβ antagonism, in words (ERβ): did not have antagonistic properties | solubility in water, in words [2]: insoluble in water | concentration toxic to yeast cells (yeast cells): above 1×10^−4 M
